Reference: ChEMBL document CHEMBL4627246, “Pyroglutamide-Based P2X7 Receptor Antagonists Targeting Inflammatory Bowel Disease” (J Med Chem, 2020)

Experiments:
Format in all cases: cell-based
HT-29 = assay: Cytotoxicity against human HT-29 cells assessed as effect on cell growth at 10 uM incubated for 48 hrs by sulforhodamine B assay; settings: ht-29, 48 h
UACC-257 = assay: Cytotoxicity against human UACC257 cells assessed as effect on cell growth at 10 uM incubated for 48 hrs by sulforhodamine B assay; settings: uacc-257, 48 h
UO-31 = assay: Cytotoxicity against human UO31 cells assessed as effect on cell growth at 10 uM incubated for 48 hrs by sulforhodamine B assay; settings: uo-31, 48 h
OVCAR-8 = assay: Cytotoxicity against human OVCAR8 cells assessed as effect on cell growth at 10 uM incubated for 48 hrs by sulforhodamine B assay; settings: ovcar-8, 48 h
SK-MEL-28 = assay: Cytotoxicity against human SK-MEL-28 cells assessed as effect on cell growth at 10 uM incubated for 48 hrs by sulforhodamine B assay; settings: sk-mel-28, 48 h
SF-539 = assay: Cytotoxicity against human SF539 cells assessed as effect on cell growth at 10 uM incubated for 48 hrs by sulforhodamine B assay; settings: sf-539, 48 h
MDA-MB-231 = assay: Cytotoxicity against human MDA-MB-231 cells assessed as effect on cell growth at 10 uM incubated for 48 hrs by sulforhodamine B assay; settings: mda-mb-231, 48 h
T47D = assay: Cytotoxicity against human T47D cells assessed as effect on cell growth at 10 uM incubated for 48 hrs by sulforhodamine B assay
HL-60(TB) = assay: Cytotoxicity against human HL-60(TB) cells assessed as effect on cell growth at 10 uM incubated for 48 hrs by sulforhodamine B assay
A549 = assay: Cytotoxicity against human A549/ATCC cells assessed as effect on cell growth at 10 uM incubated for 48 hrs by sulforhodamine B assay; settings: a549, 48 h
RPMI-8226 = assay: Cytotoxicity against human RPMI8226 cells assessed as effect on cell growth at 10 uM incubated for 48 hrs by sulforhodamine B assay; settings: rpmi-8226, 48 h
M14 = assay: Cytotoxicity against human M14 cells assessed as effect on cell growth at 10 uM incubated for 48 hrs by sulforhodamine B assay; settings: m14, 48 h
SK-MEL-2 = assay: Cytotoxicity against human SK-MEL-2 cells assessed as effect on cell growth at 10 uM incubated for 48 hrs by sulforhodamine B assay; settings: sk-mel-2, 48 h
CAKI-1 = assay: Growth inhibition of human Caki1 cells assessed as growth percentage at 10 uM incubated for 48 hrs by sulforhodamine B assay; settings: caki-1, 48 h
A498 = assay: Cytotoxicity against human A498 cells assessed as effect on cell growth at 10 uM incubated for 48 hrs by sulforhodamine B assay; settings: a498, 48 h
EKVX = assay: Cytotoxicity against human EKVX cells assessed as effect on cell growth at 10 uM incubated for 48 hrs by sulforhodamine B assay
NCI-H23 = assay: Cytotoxicity against human NCI-H23 cells assessed as effect on cell growth at 10 uM incubated for 48 hrs by sulforhodamine B assay; settings: nci-h23, 48 h
PC-3 = assay: Cytotoxicity against human PC3 cells assessed as effect on cell growth at 10 uM incubated for 48 hrs by sulforhodamine B assay; settings: pc-3, 48 h
SW-620 = assay: Cytotoxicity against human SW620 cells assessed as effect on cell growth at 10 uM incubated for 48 hrs by sulforhodamine B assay; settings: sw-620, 48 h
OVCAR-5 = assay: Cytotoxicity against human OVCAR5 cells assessed as effect on cell growth at 10 uM incubated for 48 hrs by sulforhodamine B assay; settings: ovcar-5, 48 h

Measured: Activity

CN1C(=O)CC[C@H]1C(=O)NCc1cccc(C(F)(F)F)c1Cl [GSK1482160]
Non-Toxic: all assays above

O=C(NCCc1ccccc1)[C@@H]1CCC(=O)N1Cc1ccc(Cl)cc1Cl
Non-Toxic: all assays above

O=C(NCc1ccc(Cl)cc1Cl)[C@@H]1CCC(=O)N1c1ccc(Cl)cc1Cl
Non-Toxic: all assays above

CN1CCN(/C=C2\C[C@@H](C(=O)NCc3ccc(Cl)cc3Cl)N(c3cccs3)C2=O)CC1
Non-Toxic: all assays above

O=C(NCCc1ccccc1)[C@@H]1CCC(=O)N1Cc1ccc(Br)cc1
Non-Toxic: all assays above

O=C(NCCc1ccc(Cl)cc1Cl)[C@@H]1CCC(=O)N1c1ccccc1
Non-Toxic: all assays above

COc1ccc(N2C(=O)[C@@H]3C/C(=C\N(C)C)C(=O)N3C2N(C)C)cc1 (stereo not given in full)
Non-Toxic: all assays above

CCCCCCN1C(=O)[C@@H]2C/C(=C\N(C)C)C(=O)N2C1N(C)C (stereo not given in full)
Non-Toxic: all assays above

CN(Cc1ccccc1)C(=O)[C@@H]1CCC(=O)N1Cc1ccc(Cl)cc1Cl
Non-Toxic: all assays above

O=C(NCc1ccccc1Cl)[C@@H]1CCC(=O)N1Cc1ccccc1Cl
Non-Toxic: all assays above

COc1cc(CNC(=O)[C@@H]2CCC(=O)N2)cc(OC)c1OC
Non-Toxic: all assays above

O=C(NCc1ccccc1Cl)[C@@H]1CCC(=O)N1Cc1ccccc1
Non-Toxic: all assays above

O=C(NCc1ccc(Cl)cc1Cl)[C@@H]1CCC(=O)N1C(c1ccc(Cl)cc1)c1ccc(Cl)cc1
Non-Toxic: all assays above

O=C(NCc1ccc(Cl)cc1Cl)[C@@H]1CCC(=O)N1c1cscn1
Non-Toxic: all assays above
